Measurements reported in US9260429B2, “Pyrido[3,4-B]indoles and methods of use” (Medivation Technologies, Inc., priority 2008, dated 2016).

Key:
[1] = target: T1, human recombinant dopamine D2L receptor (Homo sapiens, UniProt P14416); assay: Dopamine D2L radioligand binding ([3H]Spiperone); details: 2 h, 1 μM ligand conc.; read-out: Percent Inhibition of ligand binding Dopamine (1 μM ligand conc.) D2L
T1 construct: expressed in transfected cells; host or cells: CHO cells
Experimental: To evaluate in radioligand binding assays the activity of compounds of the invention, human recombinant dopamine D2L receptor expressed in Chinese hamster ovary (CHO) cells (Grandy, D. K. et al. Proc. Natl. Acad. Sci. USA. 86:9762, 1989; Hayes, G. et al., Mol. Endocrinol. 6:920, 1992) in a modified Tris-HCl buffer (50 mM Tris-HCl, pH 7.4, 1.4 mM Ascorbic Acid, 0.001% BSA, 150 mM NaCl) was used. Compounds of the invention were incubated with 0.16 nM [^3H]Spiperone for 120 minutes at 25° C. Non-specific binding was estimated in the presence of […] Haloperidol. Receptor proteins were filtered and washed, the filters were then counted to determine [^3H]Spiperone specifically bound. Compounds were screened at 1 μM or lower, using 1% DMSO as vehicle. Biochemical assay results are presented as the percent inhibition of specific binding in Table 4.

[2] = target: T2, human recombinant serotonin (5-Hydroxytryptamine) 5-HT2C receptor (Homo sapiens, UniProt P28335); assay: Serotonin 5-HT2C radioligand binding ([3H]Mesulergine); details: 1 h; read-out: Percent Inhibition of ligand binding Serotonin (1 μM ligand concentration) 5-HT2C
T2 construct: expressed in transfected cells; host or cells: CHO-K1 cells
T2 sequence (P28335 33-458): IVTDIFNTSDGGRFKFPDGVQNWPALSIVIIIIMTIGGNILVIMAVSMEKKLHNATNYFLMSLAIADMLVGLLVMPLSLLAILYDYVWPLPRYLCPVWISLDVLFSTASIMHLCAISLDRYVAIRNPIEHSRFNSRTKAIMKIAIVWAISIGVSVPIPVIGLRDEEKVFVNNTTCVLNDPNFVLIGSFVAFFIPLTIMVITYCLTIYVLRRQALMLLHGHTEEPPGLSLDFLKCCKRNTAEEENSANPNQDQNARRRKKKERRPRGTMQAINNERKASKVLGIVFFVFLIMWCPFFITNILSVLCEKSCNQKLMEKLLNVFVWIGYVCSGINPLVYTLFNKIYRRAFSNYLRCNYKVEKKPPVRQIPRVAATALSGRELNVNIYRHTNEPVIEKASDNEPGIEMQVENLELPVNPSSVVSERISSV
Experimental: Compounds of the invention were incubated with 1 nM [^3H]Mesulergine for 60 minutes at 25° C. Non-specific binding was estimated in the presence of 1 μM Mianserin. Receptor proteins were filtered and washed, the filters were then counted to determine [^3H]Mesulergine specifically bound. […] Biochemical assay results are presented as the percent inhibition of specific binding in Table 5.

[3] = target: T3, human recombinant serotonin (5-Hydroxytryptamine) 5-HT6 receptor (Homo sapiens, UniProt P50406); assay: Serotonin 5-HT6 radioligand binding ([3H]LSD); details: 2 h; read-out: Percent Inhibition of ligand binding Serotonin (1 μM ligand concentration) 5-HT6
T3 construct: expressed in transfected cells; host or cells: human HeLa cells
T3 sequence (P50406 whole entry): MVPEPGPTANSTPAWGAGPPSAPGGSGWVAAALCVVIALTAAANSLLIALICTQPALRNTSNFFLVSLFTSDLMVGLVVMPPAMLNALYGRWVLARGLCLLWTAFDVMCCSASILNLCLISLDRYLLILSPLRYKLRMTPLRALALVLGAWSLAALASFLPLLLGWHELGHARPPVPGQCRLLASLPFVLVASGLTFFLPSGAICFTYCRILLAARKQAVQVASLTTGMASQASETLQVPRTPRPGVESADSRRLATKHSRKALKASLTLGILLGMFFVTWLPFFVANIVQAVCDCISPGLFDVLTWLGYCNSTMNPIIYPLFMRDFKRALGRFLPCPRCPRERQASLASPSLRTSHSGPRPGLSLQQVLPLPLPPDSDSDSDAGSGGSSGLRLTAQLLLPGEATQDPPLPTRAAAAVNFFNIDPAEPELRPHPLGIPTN
Experimental: To evaluate in radioligand binding assays the activity of compounds of the invention, human recombinant serotonin (5-Hydroxytryptamine) 5-HT6 receptor expressed in human HeLa cells (Monsma, F. J. Jr. et al., Mol. Pharmacol. 43:320, 1993) in a modified Tris-HCl buffer (50 mM Tris-HCl, pH 7.4, 150 mM NaCl, 2 mM Ascorbic Acid, 0.001% BSA) was used. Compounds of the invention were incubated with 1.5 nM [3H]Lysergic acid diethylamide (LSD) for 120 minutes at 37° C. Non-specific binding was estimated in the presence of […] Serotonin (5-HT). Receptor proteins were filtered and washed, the filters were then counted to determine [3H]LSD specifically bound. Compounds were screened at 1 μM or lower, using 1% DMSO as vehicle. Biochemical assay results are presented as the percent inhibition of specific binding in Table 5.

[4] = target: T4, human recombinant serotonin (5-Hydroxytryptamine) 5-HT7 receptor (Homo sapiens, UniProt P34969); assay: Serotonin 5-HT7 radioligand binding ([3H]LSD); details: 2 h; read-out: Percent Inhibition of ligand binding Serotonin (1 μM ligand concentration) 5-HT7
T4 construct: expressed in transfected cells; host or cells: CHO cells
T4 sequence (P34969 whole entry): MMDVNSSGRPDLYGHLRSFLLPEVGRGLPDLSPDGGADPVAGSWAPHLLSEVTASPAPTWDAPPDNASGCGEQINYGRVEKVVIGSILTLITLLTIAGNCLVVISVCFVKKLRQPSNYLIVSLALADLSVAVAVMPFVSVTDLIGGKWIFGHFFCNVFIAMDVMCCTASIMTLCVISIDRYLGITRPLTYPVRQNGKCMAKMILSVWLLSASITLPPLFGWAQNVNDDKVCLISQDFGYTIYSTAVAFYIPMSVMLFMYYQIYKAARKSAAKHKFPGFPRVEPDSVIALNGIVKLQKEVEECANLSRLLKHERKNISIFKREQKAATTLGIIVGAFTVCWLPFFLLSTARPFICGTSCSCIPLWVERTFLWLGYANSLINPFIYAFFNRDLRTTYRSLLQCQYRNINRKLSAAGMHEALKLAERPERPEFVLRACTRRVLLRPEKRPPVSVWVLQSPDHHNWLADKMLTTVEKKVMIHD
Experimental: To evaluate in radioligand binding assays the activity of compounds of the invention, human recombinant serotonin (5-Hydroxytryptamine) 5-HT7 receptor expressed in Chinese hamster ovary (CHO) cells (Roth, B. L. et al., J. Pharmacol. Exp. Ther. 268:1403, 1994; Shen, Y. et al., J. Biol. Chem. 268:18200, 1993) in a modified Tris-HCl buffer (50 mM Tris-HCl, pH 7.4, 10 mM MgCl2, 0.5 mM EDTA) was used. Compounds of invention were incubated with 5.5 nM [^3H]Lysergic acid diethylamide (LSD) for 2 hours at 25° C. Non-specific binding was estimated in the presence of […] Serotonin (5-HT). Receptor proteins were filtered and washed, the filters were then counted to determine [^3H]LSD specifically bound. Compounds were screened at 1 μM or lower, using 1% DMSO as vehicle. Biochemical assay results are presented as the percent inhibition of specific binding in Table 5.

[5] = target: T5, human recombinant serotonin (5-Hydroxytryptamine) 5-HT2A receptor (Homo sapiens, UniProt P28223); assay: Serotonin 5-HT2A radioligand binding ([3H]Ketanserin); details: 1 h; read-out: Percent Inhibition of ligand binding Serotonin (1 μM ligand concentration) 5-HT2A
T5 construct: expressed in transfected cells; host or cells: CHO-K1 cells
T5 sequence (P28223 whole entry): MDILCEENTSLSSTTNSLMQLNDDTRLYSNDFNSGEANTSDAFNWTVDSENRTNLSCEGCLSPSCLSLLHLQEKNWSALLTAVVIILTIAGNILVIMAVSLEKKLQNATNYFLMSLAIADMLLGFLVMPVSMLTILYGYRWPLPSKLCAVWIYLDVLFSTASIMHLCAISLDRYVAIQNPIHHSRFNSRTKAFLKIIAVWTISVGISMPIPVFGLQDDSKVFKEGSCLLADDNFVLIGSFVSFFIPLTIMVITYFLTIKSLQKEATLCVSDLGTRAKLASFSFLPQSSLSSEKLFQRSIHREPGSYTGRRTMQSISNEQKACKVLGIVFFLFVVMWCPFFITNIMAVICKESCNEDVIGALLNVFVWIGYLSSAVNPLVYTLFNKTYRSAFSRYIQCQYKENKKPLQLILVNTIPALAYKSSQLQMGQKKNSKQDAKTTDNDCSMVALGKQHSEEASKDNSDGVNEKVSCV
Experimental: To evaluate in radioligand binding assays the activity of compounds of the invention, human recombinant serotonin (5-Hydroxytryptamine) 5-HT2A receptor expressed in Chinese hamster ovary (CHO-K1) cells (Bonhaus, D. W. et al. Br. J. Pharmacol. 115:622, 1995; Saucier, C. and Albert, P. R., J. Neurochem. 68:1998, 1997) in a 50 mM Tris-HCl buffer, pH 7.4, was used. Compounds of the invention were incubated with 0.5 nM [^3H]Ketanserin for 60 minutes at 25° C. Non-specific binding was estimated in the presence of 1 μM Mianserin. Receptor proteins were filtered and washed, the filters were then counted to determine [^3H]Ketanserin specifically bound. Compounds were screened at 1 μM or lower, using 1% DMSO as vehicle. Biochemical assay results are presented as the percent inhibition of specific binding in Table 5.

[6] = target: T6, human recombinant histamine H1 receptor (Homo sapiens, UniProt P35367); assay: Histamine H1 radioligand binding ([3H]Pyrilamine); details: 1 μM; read-out: Binding data (Percentage Inhibition) Histamine Binding (1 μM) H1
T6 construct: expressed in transfected cells; host or cells: CHO cells
T6 sequence (P35367 whole entry): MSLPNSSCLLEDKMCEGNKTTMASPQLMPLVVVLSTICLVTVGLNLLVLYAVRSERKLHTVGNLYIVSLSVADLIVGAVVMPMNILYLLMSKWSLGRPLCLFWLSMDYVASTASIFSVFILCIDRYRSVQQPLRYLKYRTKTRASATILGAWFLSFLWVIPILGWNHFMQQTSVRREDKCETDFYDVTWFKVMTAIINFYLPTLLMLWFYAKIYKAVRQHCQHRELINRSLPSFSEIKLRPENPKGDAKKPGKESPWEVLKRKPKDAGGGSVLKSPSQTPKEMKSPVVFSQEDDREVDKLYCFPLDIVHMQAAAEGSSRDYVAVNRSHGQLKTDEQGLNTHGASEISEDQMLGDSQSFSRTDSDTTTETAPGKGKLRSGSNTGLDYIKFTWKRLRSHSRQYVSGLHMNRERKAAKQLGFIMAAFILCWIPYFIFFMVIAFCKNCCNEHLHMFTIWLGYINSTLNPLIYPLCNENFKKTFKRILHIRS
Experimental: To evaluate in radioligand binding assays the activity of compounds of the invention, human recombinant histamine H1 receptor expressed in Chinese hamster ovary (CHO) cells (De Backer, M. D. et al., Biochem. Biophys. Res. Comm. 197(3):1601, 1993) in a modified Tris-HCl buffer (50 mM Tris-HCl, pH 7.4, 2 mM MgCl2, 100 mM NaCl, 250 mM Sucrose) was used. Compounds of the invention were incubated with 1.2 nM [^3H]Pyrilamine for 180 minutes at 25° C. Non-specific binding was estimated in the presence of 1 μM pyrilamine. Receptor proteins were filtered and washed, the filters were then counted to determine [^3H]Pyrilamine specifically bound. […] Biochemical assay results are presented as the percent inhibition of specific binding in Table 3.

[7] = target: T7, human recombinant histamine H2 receptor (Homo sapiens, UniProt P25021); assay: Histamine H2 radioligand binding ([125I]Aminopotentidine); details: 1 μM; inhibition of specific [125I]Aminopotentidine binding; read-out: Binding data (Percentage Inhibition) Histamine Binding (1 μM) H2
T7 construct: expressed in transfected cells; host or cells: CHO-K1 cells
T7 sequence (P25021 whole entry): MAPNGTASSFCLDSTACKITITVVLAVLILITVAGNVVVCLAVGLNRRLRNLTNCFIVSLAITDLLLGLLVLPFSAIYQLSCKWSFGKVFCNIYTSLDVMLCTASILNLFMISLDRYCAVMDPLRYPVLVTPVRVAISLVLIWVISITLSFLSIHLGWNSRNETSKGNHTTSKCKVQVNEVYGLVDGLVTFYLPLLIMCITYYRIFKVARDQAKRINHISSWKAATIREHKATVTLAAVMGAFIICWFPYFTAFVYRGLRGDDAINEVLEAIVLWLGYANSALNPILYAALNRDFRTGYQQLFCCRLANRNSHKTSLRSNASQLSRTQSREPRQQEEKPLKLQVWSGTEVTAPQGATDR
Experimental: To evaluate in radioligand binding assays the activity of compounds of the invention, human recombinant histamine H2 receptor expressed in Chinese hamster ovary (CHO) K1 cells (Ruat, M., Proc. Natl. Acad. Sci. USA. 87(5):1658, 1990) in a 50 mM Phosphate buffer, pH 7.4 was used. Compounds of the invention were incubated with 0.1 nM [^125I]Aminopotentidine for 120 minutes at 25° C. Non-specific binding was estimated in the presence of 3 μM Tiotidine. Receptor proteins were filtered and washed, the filters were then counted to determine [^125I]Aminopotentidine specifically bound. Compounds were screened at 1 μM or lower, using 1% DMSO as vehicle. Biochemical assay results are presented as the percent inhibition of specific binding in Table 3.

T1 sequence (P14416 whole entry): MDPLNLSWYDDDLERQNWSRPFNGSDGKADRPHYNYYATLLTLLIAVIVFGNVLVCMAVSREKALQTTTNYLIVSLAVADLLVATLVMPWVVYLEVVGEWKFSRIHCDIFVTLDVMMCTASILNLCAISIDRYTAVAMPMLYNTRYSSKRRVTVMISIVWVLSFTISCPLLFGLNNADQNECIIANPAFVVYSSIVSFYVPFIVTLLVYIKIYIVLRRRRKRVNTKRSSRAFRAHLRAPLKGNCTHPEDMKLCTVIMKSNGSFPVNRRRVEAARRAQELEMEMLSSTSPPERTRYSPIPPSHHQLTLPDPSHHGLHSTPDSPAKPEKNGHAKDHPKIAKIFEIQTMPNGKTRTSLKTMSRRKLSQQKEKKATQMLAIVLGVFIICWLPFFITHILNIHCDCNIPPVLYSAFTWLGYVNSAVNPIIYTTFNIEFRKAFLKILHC

Row | Structure (SMILES) | inhibition at 1 µM [1] | inhibition at 1 µM [2] | inhibition at 1 µM [3] | inhibition at 1 µM [4] | inhibition at 1 µM [5] | inhibition at 1 µM [6] | inhibition at 1 µM [7]
1 | C/C(=C\n1c2c(c3cc(C)ccc31)CCN(C)C2)c1ccc(F)c(F)c1 [Compound 109, 9-(2-(3,4-difluorophenyl)prop-1-enyl)-2,6-dimethyl-2,3,4,9-tetrahydro-1H-pyrido[3,4-b]indole] | 12% | 97% | 72% | 96% | 96% | 20% | 67%
2 | CCC1c2c(c3cc(Cl)ccc3n2C(=O)Cc2ccc(F)cc2)CCN1C (centres unmarked) [Compound 171] | 5% | 92% | 36% | 13% | 80% | 15% | 17%
3 | CCC1c2c(c3cc(Cl)ccc3n2/C=C(\C)c2cccnc2)CCN1C (centres unmarked) [Compound 108] | -4% | 60% | 6% | 62% | 45% | 30% | 12%
4 | C/C(=C\n1c2c(c3cc(Cl)ccc31)CCN(C)C2)c1ccc(Cl)c(Cl)c1 [Compound 114, 6-chloro-9-(2-(3,4-dichlorophenyl)prop-1-enyl)-2-methyl-2,3,4,9-tetrahydro-1H-pyrido[3,4-b]indole] | 8% | 95% | 42% | 87% | 93% | 30% | 75%
5 | CCC1c2c(c3cc(C)ccc3n2/C=C(\C)c2ccc(Cl)c(Cl)c2)CCN1C (centres unmarked) [Compound 177, 9-(2-(3,4-dichlorophenyl)prop-1-enyl)-1-ethyl-2,6-dimethyl-2,3,4,9-tetrahydro-1H-pyrido[3,4-b]indole] | 9% | 88% | 6% | 57% | 83% | 11% | 39%
6 | COc1ccc(C#Cn2c3c(c4cc(Cl)ccc42)CCN(C)C3)cc1F [Compound 155, 6-chloro-9-((3-fluoro-4-methoxyphenyl)ethynyl)-2-methyl-2,3,4,9-tetrahydro-1H-pyrido[3,4-b]indole] | 12% | 95% | 14% | 19% | 85% | 2% | 49%
7 | C/C(=C\n1c2c(c3cc(C)ccc31)CCN(C)C2C)c1ccc(Cl)cc1Cl (centres unmarked) [Compound 178] | 3% | 101% | 25% | 59% | 97% | 44% | 54%
8 | COc1ccc(/C(C)=C/n2c3c(c4cc(C)ccc42)CCN(C)C3)cc1F [Compound 121, 9-(2-(3-fluoro-4-methoxyphenyl)prop-1-enyl)-2,6-dimethyl-2,3,4,9-tetrahydro-1H-pyrido[3,4-b]indole] | 21% | 102% | 33% | 94% | 96% | 9% | 50%
9 | C/C(=C\n1c2c(c3cc(Cl)ccc31)CCN(C)C2C)c1ccc(Cl)c(Cl)c1 (centres unmarked) [Compound 115, 6-chloro-9-(2-(3,4-dichlorophenyl)prop-1-enyl)-1,2-dimethyl-2,3,4,9-tetrahydro-1H-pyrido[3,4-b]indole] | 0% | 86% | 40% | 74% | 85% | 50% | 71%
10 | COc1ccc(/C(C)=C/n2c3c(c4cc(Cl)ccc42)CCN(C)C3)cc1F [Compound 122, 6-chloro-9-(2-(3-fluoro-4-methoxyphenyl)prop-1-enyl)-2-methyl-2,3,4,9-tetrahydro-1H-pyrido[3,4-b]indole] | 21% | 102% | 36% | 95% | 95% | 13% | 56%
11 | CCC1c2c(c3cc(Cl)ccc3n2/C=C(\C)c2ccc(F)c(F)c2)CCN1C (centres unmarked) [Compound 112, 6-chloro-9-(2-(3,4-difluorophenyl)prop-1-enyl)-1-ethyl-2-methyl-2,3,4,9-tetrahydro-1H-pyrido[3,4-b]indole] | 12% | 94% | 61% | 67% | 82% | 33% | 38%
